This is an account of results in patent US7838518B2, “1-arylsulfonyl-3-substituted indole and indoline derivatives useful in the treatment of central nervous system disorders” (N.V. Organon, priority 2002, dated 2010).

This experiment concerns the target T1, human 5-HT6 receptor (Homo sapiens, UniProt P50406).
T1 construct: expressed in transfected cells
The experiment is described as follows: 5-HT6 receptor binding assay ([3H]-LSD competition). To be noted: membranes of NIH 3T3 cells stably expressing the human 5-HT6 gene; [3H]-LSD radioligand; IC50 converted to pKi by Cheng-Prusoff equation; read-out: pKi (affinity for the 5-HT6 receptor) (converted). Here is the method: The ability of the compounds of the invention to interact with the 5-HT6 receptor is established in (competitive) binding studies to NIH 3T3 cells stably expressing the human 5-HT6 receptor.
NIH 3T3 cells stably expressing the human 5-HT6 gene were grown at 37° C. in a 5% CO2 atmosphere in DMEM supplemented with 10% cosmic calf serum (Hyclone) and subcultured when confluent. Cells were harvested by trypsination (Sigma) and membranes prepared by homogenisation followed by centrifugation in […] Tris buffer (pH 7.4) containing […] magnesium sulphate and […] EDTA. Radioligand binding assays were performed in 96 well polystyrene deep well plates (Semat) in a final volume of 500 μl, consisting of 100 μl of competing drug, 100 μl of 10 nmole·L^−1 [^3H]-lysergic acid diethylamide (LSD) and 300 μl of diluted membrane expressing the 5-HT6 receptor. All test compounds were dissolved in DMSO (dimethyl-sulfoxide) at 10 mM and serially diluted is assay buffer to give a six-fold concentration range (between 0.01 nM and 100 μM). Non-specific binding was determined with 10 μM Methiothepin. Plates were incubated at room temperature for 90 minutes. The reactions were terminated by rapid filtration using a Packard harvester onto 96 well GF/B filter plates (Packerd Unifilter) presoaked with 0.3% w/N polyethyleneimine, washed 3 times with ice-cold assay buffer (1 ml), oven dried and 50 μl Microscint-20 added. The retained radioactivity was then determined using a scintillation counter.
Data were analysed using standard curve fitting procedures (Graphpad: four parameter logistic equation) to produce IC50 values for active compounds (where IC50 is the concentration of test compound causing 50% inhibition of binding). IC50 values were conerted to pKi values using the Cheng-Prusoff equation 1 (Cheng, Y. and Prosoff, W. H., Biochem. Pharmacol. 22, 3099-3108, 1973).

Structures are written as SMILES. Where a name gives a salt, the structure may show the parent alone.

T1 sequence (P50406 whole entry): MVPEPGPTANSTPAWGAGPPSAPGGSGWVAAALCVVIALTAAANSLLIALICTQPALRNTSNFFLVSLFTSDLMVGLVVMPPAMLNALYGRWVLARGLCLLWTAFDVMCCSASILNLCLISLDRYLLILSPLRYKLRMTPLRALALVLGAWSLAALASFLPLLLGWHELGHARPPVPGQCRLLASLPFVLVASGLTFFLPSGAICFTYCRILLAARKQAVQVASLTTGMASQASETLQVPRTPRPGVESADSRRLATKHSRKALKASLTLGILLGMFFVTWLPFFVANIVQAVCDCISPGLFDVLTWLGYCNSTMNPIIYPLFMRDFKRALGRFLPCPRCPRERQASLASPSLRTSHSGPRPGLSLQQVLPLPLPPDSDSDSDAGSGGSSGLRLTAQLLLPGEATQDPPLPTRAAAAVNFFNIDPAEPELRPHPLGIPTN

For the compound `COc1ccc(S(=O)(=O)N2CC(C(=O)NC3CC4CCC(C3)N4C)c3ccccc32)c2ccccc12` (centres unmarked) [Example 31, 1-(4-Methoxynaphthalene-1-sulfonyl)-2,3-dihydro-1H-indole-3-carboxylic acid (8-methyl-8-aza-bicyclo[3.2.1]oct-3-yl)amide], the Ki was less than 0.0316 µM.
`COc1ccc(S(=O)(=O)N2CC(C(=O)N(C)C3CCN(C)CC3)c3ccccc32)c2ccccc12` (centres unmarked) [Example 35, 1-(4-Methoxynaphthalene-1-sulfonyl)-2,3-dihydro-1H-indole-3-carboxylic acid methyl-(1-methyl-piperidin-4-yl)-amide]: the Ki is less than 0.0316 µM.
Then `COc1ccc(S(=O)(=O)N2CC(C(=O)NC3CCCN(C)C3)c3ccccc32)c2ccccc12` (centres unmarked) [Example 2, 1-(4-Methoxynaphthalene-1-sulfonyl)-2,3-dihydro-1H-indole-3-carboxylic acid (1-methyl-piperidin-3-yl)amide], with less than 0.0316 µM; and `CN1CCC(N(C)C(=O)C2CN(S(=O)(=O)c3cc(Cl)sc3Cl)c3ccccc32)CC1` (centres unmarked) [Example 51, 1-(2,5-Dichloro-thiophene-3-sulfonyl)-2,3-dihydro-1H-indole-3-carboxylic acid methyl-(1-methyl-piperidin-4-yl)-amide trifluoroacetate], with less than 0.0316 µM.
Then `COc1ccc(S(=O)(=O)N2CC(C(=O)N3CCNCC3)c3ccccc32)c2ccccc12` (centres unmarked) [Example 17, [1-(4-Methoxynaphthalene-1-sulfonyl)-2,3-dihydro-1H-indol-3-yl]-piperazin-1-yl-methanone], with less than 0.0316 µM; and `COc1ccc(S(=O)(=O)N2CC(C(=O)NC3CCN(C)CC3)c3ccccc32)c2ccccc12` (centres unmarked) [Example 25, 1-(4-Methoxynaphthalene-1-sulfonyl)-2,3-dihydro-1H-indole-3-carboxylic acid (1-methyl-piperidin-4-yl)-amide], with less than 0.0316 µM.
As for `CN1CCC(N(C)C(=O)C2CN(S(=O)(=O)c3cccc(C(F)(F)F)c3)c3ccccc32)CC1` (centres unmarked) [Example 39, 1-(3-Trifluoromethyl-benzenesulfonyl)-2,3-dihydro-1H-indole-3-carboxylic acid methyl-(1-methyl-piperidin-4-yl)-amide trifluoroacetate], the Ki was less than 0.0316 µM.
As for `CCN(CC)CCNC(=O)C1CN(S(=O)(=O)c2ccc(OC)c3ccccc23)c2ccccc21` (centres unmarked) [Example 24, 1-(4-Methoxynaphthalene-1-sulfonyl)-2,3-dihydro-1H-indole-3-carboxylic acid (2-diethylamino-ethyl)-amide], the figure is less than 0.0316 µM; as for `CN1CCC(N(C)C(=O)C2CN(S(=O)(=O)c3ccc4c(c3)CCO4)c3ccccc32)CC1` (centres unmarked) [Example 55, 1-(2,3-Dihydro-benzofuran-5-sulfonyl)-2,3-dihydro-1H-indole-3-carboxylic acid methyl-(1-methyl-piperidin-4-yl)-amide trifluoroacetate], less than 0.0316 µM; as for `CN1CCC(N(C)C(=O)C2CN(S(=O)(=O)c3cccc4c(Cl)cccc34)c3ccccc32)CC1` (centres unmarked) [Example 71, 1-(5-Chloro-naphthalene-1-sulfonyl)-2,3-dihydro-1H-indole-3-carboxylic acid methyl-(1-methyl-piperidin-4-yl)-amide trifluoroacetate], less than 0.0316 µM.
Then `CN1CCC(N(C)C(=O)C2CN(S(=O)(=O)c3ccc(C(F)(F)F)cc3)c3ccccc32)CC1` (centres unmarked) [Example 50, 1-(4-Trifluoromethyl-benzenesulfonyl)-2,3-dihydro-1H-indole-3-carboxylic acid methyl-(1-methyl-piperidin-4-yl)-amide trifluoroacetate], with less than 0.0316 µM; and `Cc1cc(S(=O)(=O)N2CC(C(=O)N(C)C3CCN(C)CC3)c3ccccc32)c(C(F)(F)F)o1` (centres unmarked) [Example 109, 1-(5-Methyl-2-trifluoromethyl-furan-3-sulphonyl)-2,3-dihydro-1H-indole-3-carboxylic acid methyl-(1-methyl-piperidin-4-yl)-amide], with less than 0.0316 µM; and `CN1CCC(N(C)C(=O)C2CN(S(=O)(=O)c3csc4ccccc34)c3ccccc32)CC1` (centres unmarked) [Example 62, 1-(Benzo[b]thiophene-3-sulfonyl)-2,3-dihydro-1H-indole-3-carboxylic acid methyl-(1-methyl-piperidin-4-yl)-amide trifluoroacetate], with less than 0.0316 µM.
Turning to `COc1ccc(S(=O)(=O)N2CC(C(=O)N(C)C3CCN(C)CC3)c3ccccc32)cc1Br` (centres unmarked) [Example 69, 1-(3-Bromo-4-methoxy-benzenesulfonyl)-2,3-dihydro-1H-indole-3-carboxylic acid methyl-(1-methyl-piperidin-4-yl)-amide trifluoroacetate], the Ki is less than 0.0316 µM.
`CN1CCC(N(C)C(=O)C2CN(S(=O)(=O)c3ccc(OC(F)(F)F)cc3)c3ccccc32)CC1` (centres unmarked) [Example 42, 1-(4-Trifluoromethoxy-benzenesulfonyl)-2,3-dihydro-1H-indole-3-carboxylic acid methyl-(1-methyl-piperidin-4-yl)-amide trifluoroacetate]: the Ki is less than 0.0316 µM.
In the case of `CN1CCC(N(C)C(=O)C2CN(S(=O)(=O)c3cccc(Br)c3)c3ccccc32)CC1` (centres unmarked) [Example 40, 1-(3-Bromo-benzenesulfonyl)-2,3-dihydro-1H-indole-3-carboxylic acid methyl-(1-methyl-piperidin-4-yl)-amide trifluoroacetate], the Ki is less than 0.0316 µM.
As for `CN1CCC(N(C)C(=O)C2CN(S(=O)(=O)c3cccc(-c4ccccc4)c3)c3ccccc32)CC1` (centres unmarked) [Example 60, 1-(Biphenyl-3-sulfonyl)-2,3-dihydro-1H-indole-3-carboxylic acid methyl-(1-methyl-piperidin-4-yl)-amide trifluoroacetate], the figure is less than 0.0316 µM.
Then `CN1CCC(N(C)C(=O)C2CN(S(=O)(=O)c3ccc4ccccc4c3)c3ccccc32)CC1` (centres unmarked) [Example 58, 1-(Naphthalene-2-sulfonyl)-2,3-dihydro-1H-indole-3-carboxylic acid methyl-(1-methyl-piperidin-4-yl)-amide trifluoroacetate], with less than 0.0316 µM; and `CN1CCC(N(C)C(=O)C2CN(S(=O)(=O)c3cccc4ccccc34)c3ccccc32)CC1` (centres unmarked) [Example 59, 1-(Naphthalene-1-sulfonyl)-2,3-dihydro-1H-indole-3-carboxylic acid methyl-(1-methyl-piperidin-4-yl)-amide trifluoroacetate], with less than 0.0316 µM; and `COc1ccc(S(=O)(=O)N2CC(C(=O)NCCC3CCCN3C)c3ccccc32)c2ccccc12` (centres unmarked) [Example 1, 1-(4-Methoxynaphthalene-1-sulfonyl)-2,3-dihydro-1H-indole-3-carboxylic acid [2-(1-methyl-pyrrolidin-2-yl)-ethyl]amide], with less than 0.0316 µM.
